The test system of one data set is reproductive system. The conditions noted are these: based on ToxCast database and literature search; cited from earlier work.
The test system of data set [1] is human breast cancer cells. The conditions noted are these: cited from earlier work.
Data set [2] has as its system Spermatogonial cells (C18-4). Put plainly: cells. It counts as cell-based, mouse. The conditions noted are these: Mus musculus, read-out: IC50.
The subject of the next data set is HepG2 cell line. The conditions noted are these: cited from earlier work.
Data set [3] has as its system pregnancies and sexual development. The conditions noted are these: rats, doses of ˜80 and ˜280 mg/kg; cited from earlier work.
Data set [4] in a line: NR dye uptake assay, co-cultures treated with BPA and analogs (Example 2). As to conditions: mouse. How it is done:
(§1) The testicular cell co-culture model was established as reported in Example 1 Briefly, mouse spermatogonial cell line C18-4 was established via germ cells isolated from the testes of 6 day old Balb/c mice. […] Mouse Leydig (TM3) and Sertoli (TM4) cell lines were purchased from ATCC, and these cells were isolated from prepubertal mouse gonads. C18-4 cells were maintained in DMEM composed of 5% FBS, and 100 U/ml streptomycin and penicillin in a 33° C., 5% CO2 humidified environment in a sub-confluent condition, and were passaged every 3-4 days TM3 and TM4 cells were cultured in DME/F12 composed of 1.25% FBS, 2.5% horse serum, and 100 U/ml streptomycin and penicillin at 37° C., 5% CO2 in a sub-confluent condition, and were passaged every 2-3 days. When the cells reached 70-80% confluence, a total of 1.5×10^4 cells per well were inoculated into a 96-well plate. […] The co-cultures were maintained in DMEM composed of 2.5% Nu-serum, and 100 U/ml streptomycin and penicillin in a 33° C., 5% CO2 humidified environment.
(§2) Cell viability was determined through the Neutral Red uptake assay, which is based on the ability of viable cells to incorporate NR dye into their lysosomes, while the dye is not retained if the cell dies (Repetto et al., 2008). […] The vehicle controls were set as the co-cultures treated with the vehicle (0.05% DMSO) After the treatments, the culture medium was replaced by fresh medium containing NR (50 μg/ml). After a 3 h incubation period, the co-cultures were washed with phosphate buffered saline (PBS), and the NR dye was eluted with 100 μl of a 0.5% acetic acid/50% ethanol solution. The plate was then gently shaken, and absorbance values were measured at 540 nm with a Synergy HT microplate reader (BioTek, VT). Cell viability was presented as a percentage of the mean of vehicle controls after subtracting background readings.
(§3) The data obtained from the HCS Studio·8 2.0 TargetActivation BioApplication, CellProfiler and CellProfiler Analyst were exported and further analyzed using the JMP statistical analysis package (SAS Institute, NC). To remove cell clumps, nuclei with areas larger than […] were excluded. […] For intra-plate normalization, data were normalized to the overall scaling factors, which was the mean of medians of the vehicle controls in each plate. The single cell-based data were averaged for the well-based condition. BrdU-positive cells were set by the total intensity of BrdU in the control at over 25,000 pixels. γ-H2AX positive cells were set by the total intensity of γ-H2AX in the control at over 120,000 pixels. The median lethal concentrations (LC50) were calculated using a nonlinear regression curve fit on GraphPad Prism 5 (San Diego, Calif.). To examine the correlation between the cytoskeleton and DNA damage responses in multinucleated cells, the Spearman correlation analysis was conducted between the total intensity of F-actin and γ-H2AX for 24, 48, and 72 h using cell-based data. Data were presented as mean±standard deviation (SD). Statistical significance was determined using one-way ANOVA followed by Tukey-Kramer all pairs comparison. The p-value less than 0.05 denoted a significant difference compared to the vehicle control (*).

For data set [5], the system named is testicular cell co-culture (C18-4, TM4, TM3). Described as above. As to the method:
as §1, §2, §3

For the next data set, the system named is Leydig cells (TM3). Briefly: cells. The class given is cell-based, mouse. The conditions noted are these: Mus musculus, Leydig, read-out: IC50.

SMILES strings stand for the structures. Read-outs that look alike come from different tables or passages of the source. Where only a bound is given, the exact number is not on record here.

The values that follow come from patent US20180371408A1, “CELL CULTURES AND METHODS OF USE” (priority 2017, published 2018).

The IC50 is the concentration needed to halve the response being measured.

Take `CC(C)(c1ccc(O)cc1)c1ccc(O)cc1` [BPA, 4,4′-(propane-2,2-diyl) diphenol]: the “In vivo Reproductive Toxicity” value with reproductive system is reported as “+”. Also, in data set [1], the “dose able to induce γ-H2AX” value is 10 nM. For the same compound, the IC50 in data set [2] (24 h) was found to be 190 µM; in data set [2] (48 h), 184 µM; in the data set with Leydig cells (TM3) (24 h), 88 µM; in the data set on Leydig cells (TM3) (48 h) it was 80.5 µM. Also, the “dose not able to induce γ-H2AX” value in the data set on HepG2 cell line is > 100 µM. For the same compound, the “effect on pregnancies and sexual development” value in data set [3] is “did not alter these reproductive endpoints”. The CC50 at 72 h in data set [4] was 150 µM. Moreover, the “doses significantly decreasing cell viability” value in data set [5] (24 h) is ≥ 200 µM.

As to `Oc1ccc(C(c2ccc(O)cc2)(C(F)(F)F)C(F)(F)F)cc1` [BPAF, 4,4′-(Hexafluoroisopropylidene)diphenol], the IC50 in data set [2] (24 h) worked out at 70 µM; in data set [2] (48 h), 58.5 µM; in the data set on Leydig cells (TM3) (24 h), 30 µM; with Leydig cells (TM3) (48 h) it was 20 µM. Further, the “effect on pregnancies and sexual development” value in data set [3] is “impaired pregnancies and sexual development”. In addition, the CC50 at 72 h in data set [4] was 8.5 µM. In data set [5] (24, 48, and 72 h), the “doses significantly decreasing cell viability” value was ≥ 5 µM. Also, the “toxicity ranking among BPA and analogs” value in data set [5] (co-culture model, followed by TBBPA, BPA, and BPS) is “highest toxicity”.

`O=S(=O)(c1ccc(O)cc1)c1ccc(O)cc1` [BPS, 4,4′-Sulfonyldiphenol]: the IC50 was 505 µM in data set [2] (24 h), 357 µM in data set [2] (48 h), 435 µM with Leydig cells (TM3) (24 h) and ≥ 400 µM in the data set on Leydig cells (TM3) (48 h). In data set [5] (24 h), the “doses significantly decreasing cell viability” value is ≥ 400 µM.

As for `CC(C)(c1cc(Br)c(O)c(Br)c1)c1cc(Br)c(O)c(Br)c1` [TBBPA, 2,2′,6,6′-Tetrabromo-4,4′-isopropylidenediphenol], the half-inhibitory concentration (IC50) came to 74.9 µM in data set [2] (24 h), 55 µM in data set [2] (48 h), 70 µM with Leydig cells (TM3) (24 h) and 60 µM in the data set with Leydig cells (TM3) (48 h). Further, the CC50 at 72 h in data set [4] came out at 16.8 µM. In data set [5] (24, 48, and 72 h), the “doses significantly decreasing cell viability” value is ≥ 25 µM.
